One series concerns pMCAO mice. The note with it: cited from earlier work; for neuroprotective properties: mice, pMCAO, same experimental conditions and dose (3 nmol/g).
Series [1] deals with T1, plasmin (Homo sapiens, UniProt P00747).
T1 construct: Tissue plasminogen factor (tPA), which generates plasmin from plasminogen
The series is described as follows: In vitro plasmin stability assay. It counts as in vitro ADME. The protocol: At selected time points during the incubation, the ligands were extracted from 80 μL of assay matrix by treatment with 80 μL of 50% acetonitrile (ACN). The samples were filtered and analysed by UPLC to determine the amount of ligand remaining. LC-MS analysis was performed to confirm ligand integrity and identify cleavage sites.

A short description of series [2]: In vitro plasma stability in undiluted pooled human plasma. It counts as in vitro ADME. The note with it: for T1/2: 100 μM ligand, 37° C., mean ± SEM (Table 13, FIG. 10). The protocol: At selected time points during the incubation, the ligands were extracted from the assay matrix by adding assay matrix to 6M Urea followed by precipitation using 20% TCA in acetone. After overnight incubation, the samples were filtered and analysed by UPLC to determine the amount of ligand remaining. LC-MS analysis was performed to confirm ligand integrity and identify cleavage sites.

The next series concerns the target PDZ1-2 of PSD-95 (Homo sapiens, UniProt P78352). Kind of series: Fluorescence polarization (FP) competition assay, affinity to PDZ1-2 of PSD-95. The series is classed as binding. The note with it: NPEG4-(KETLV)2 fused to polyArg CPP-tags; mean ± SEM, n ≥ 3 (Table 7, FIG. 4). The protocol:
First, a saturation binding curve was obtained to determine KD values for the interaction between a fluorescent dimeric probe and PDZ1-2 of PSD-95. Increasing concentrations of PDZ1-2 (0.015-30 nM) were added to a constant concentration of the probe (0.5 nM). The fluorescence polarization (FP) of the sample was measured at excitation/emission wavelength of 635/670 nm and the generated FP values were fitted to a one site binding model using the software GraphPad Prism. […] The FP values were fitted to a one site competition (variable slope) model in GraphPad prism. The resulting IC50 values were converted to Ki values as described previously by Nikolovska-Coleska et al., Anal. Biochem., 2004, 332, 261).
(Fluorescence polarisation rises when a labelled molecule tumbles more slowly, as on binding a larger partner.)

A further series deals with PDZ1 and PDZ2 of PSD-95. The settings on record: in vitro FP assay; read-out: Ki values towards PDZ1 and PDZ2 of PSD-95; cited from earlier work.
For series [3], the system named is patients with ischemic stroke undergoing endovascular thrombectomy. The note with it: cited from earlier work.
Series [4] has as its target T1, plasmin. The note with it: plasmin generated by tPA; cited from earlier work.

Where two headings read alike, the source gives them in different places. No end group written: not given here.

T1 sequence (P00747 581-810 limits assumed, species assumed): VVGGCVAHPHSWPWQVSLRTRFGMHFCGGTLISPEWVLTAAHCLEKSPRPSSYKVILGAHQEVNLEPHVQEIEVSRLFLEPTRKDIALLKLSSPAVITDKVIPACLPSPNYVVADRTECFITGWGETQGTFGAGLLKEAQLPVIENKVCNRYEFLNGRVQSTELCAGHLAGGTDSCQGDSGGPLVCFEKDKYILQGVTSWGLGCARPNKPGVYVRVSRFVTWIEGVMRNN
T1 sequence (P00747 97-580 partner limits assumed, species assumed): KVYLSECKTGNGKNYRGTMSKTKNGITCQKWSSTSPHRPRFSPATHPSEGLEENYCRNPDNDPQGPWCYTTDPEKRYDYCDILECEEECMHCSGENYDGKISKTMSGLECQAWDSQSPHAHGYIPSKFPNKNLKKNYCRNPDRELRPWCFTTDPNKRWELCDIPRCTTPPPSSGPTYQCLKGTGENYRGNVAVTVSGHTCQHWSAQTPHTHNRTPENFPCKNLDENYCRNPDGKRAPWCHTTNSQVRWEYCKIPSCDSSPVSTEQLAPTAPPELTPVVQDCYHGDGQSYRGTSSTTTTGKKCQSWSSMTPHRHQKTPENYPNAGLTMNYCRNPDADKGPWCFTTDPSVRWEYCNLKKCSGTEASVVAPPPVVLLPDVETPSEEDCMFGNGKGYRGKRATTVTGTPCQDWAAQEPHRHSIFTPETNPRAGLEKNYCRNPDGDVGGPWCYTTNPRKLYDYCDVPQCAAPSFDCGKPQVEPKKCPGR
PDZ1-2 of PSD-95, sequence (P78352 61-249 limits assumed): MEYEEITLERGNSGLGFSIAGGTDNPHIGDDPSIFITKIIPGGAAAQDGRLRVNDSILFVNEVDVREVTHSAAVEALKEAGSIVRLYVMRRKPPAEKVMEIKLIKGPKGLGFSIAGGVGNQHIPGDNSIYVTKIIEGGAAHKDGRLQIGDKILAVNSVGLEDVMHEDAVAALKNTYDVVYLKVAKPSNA

Take `CC[C@H](C)[C@H](NC(=O)CCOCCOCCOCCOCCOCCC(=O)N[C@H](C(=O)N[C@@H](CCC(=O)O)C(=O)N[C@H](C(=O)N[C@@H](CC(=O)O)C(=O)N[C@H](C(=O)O)C(C)C)[C@@H](C)O)[C@@H](C)CC)C(=O)N[C@@H](CCC(=O)O)C(=O)N[C@H](C(=O)N[C@@H](CC(=O)O)C(=O)N[C@H](C(=O)O)C(C)C)[C@@H](C)O` [Compound 1, OPEG4-(IETDV)2]: the neuroprotective properties result with pMCAO mice is given as “showed no neuroprotective properties”. Moreover, the reaching the brain result in the series with pMCAO mice (mouse, in vivo) is recorded as “did not reach the brain”.

As a reminder, the half-life is the time needed for the level to fall by half in the phase considered. Regarding `CC[C@H](C)[C@H](NC(=O)CCOCCOCCN(CCOCCOCCC(=O)N[C@H](C(=O)N[C@@H](CCC(=O)O)C(=O)N[C@H](C(=O)N[C@@H](CC(=O)O)C(=O)N[C@H](C(=O)O)C(C)C)[C@@H](C)O)[C@@H](C)CC)C(=O)[C@H](CCCNC(=N)N)NC(=O)[C@H](CCCNC(=N)N)NC(=O)[C@H](CCCNC(=N)N)NC(=O)[C@H](CCCNC(=N)N)NC(=O)[C@H](CCCNC(=N)N)NC(=O)[C@H](CCCNC(=N)N)NC(=O)[C@H](CCCNC(=N)N)NC(=O)[C@H](CCCNC(=N)N)NC(=O)[C@H](CCCNC(=N)N)NC(C)=O)C(=O)N[C@@H](CCC(=O)O)C(=O)N[C@H](C(=O)N[C@@H](CC(=O)O)C(=O)N[C@H](C(=O)O)C(C)C)[C@@H](C)O` [Compound 35], the half-life at 100 μM on plasmin [1] and on plasmin [1] (isolated enzyme plasmin) was 1490 ± 114 min in each case. Further, in series [2], the T1/2 turned out to be 1440 ± 0 min.

A word on the Ki: it is a dissociation constant, usually derived from enzyme kinetics or from competition with a known ligand. `CC(=O)N[C@@H](CCCNC(=N)N)C(=O)N[C@@H](CCCNC(=N)N)C(=O)N[C@@H](CCCNC(=N)N)C(=O)N[C@@H](CCCNC(=N)N)C(=O)N[C@@H](CCCNC(=N)N)C(=O)N[C@@H](CCCNC(=N)N)C(=O)N(CCOCCOCCC(=O)N[C@@H](CCCCN)C(=O)N[C@@H](CCC(=O)O)C(=O)N[C@H](C(=O)N[C@@H](CC(C)C)C(=O)N[C@H](C(=O)O)C(C)C)[C@@H](C)O)CCOCCOCCC(=O)N[C@@H](CCCCN)C(=O)N[C@@H](CCC(=O)O)C(=O)N[C@H](C(=O)N[C@@H](CC(C)C)C(=O)N[C@H](C(=O)O)C(C)C)[C@@H](C)O` [Compound 69] came in with a Ki at PDZ1-2 of PSD-95 of 8.6 ± 0.3 nM. For the same compound, in series [2], the T1/2 is recorded as 1440 ± 0 min.

Turning to `CC(=O)N[C@@H](CCCNC(=N)N)C(=O)N[C@@H](CCCNC(=N)N)C(=O)N[C@@H](CCCNC(=N)N)C(=O)N[C@@H](CCCNC(=N)N)C(=O)N(CCOCCOCCC(=O)N[C@@H](CCCCN)C(=O)N[C@@H](CCC(=O)O)C(=O)N[C@H](C(=O)N[C@@H](CC(C)C)C(=O)N[C@H](C(=O)O)C(C)C)[C@@H](C)O)CCOCCOCCC(=O)N[C@@H](CCCCN)C(=O)N[C@@H](CCC(=O)O)C(=O)N[C@H](C(=O)N[C@@H](CC(C)C)C(=O)N[C@H](C(=O)O)C(C)C)[C@@H](C)O` [Compound 73], the Ki at PDZ1-2 of PSD-95 is 11.1 ± 0.9 nM. Also, the half-life at 100 μM in series [2] (human) was found to be 912 ± 216 min.

For the compound YGRKKRRQRRRKLSSIESDV [nerinetide], the Ki at PDZ1 and PDZ2 of PSD-95 was 5 to 10 µM. Besides, the clinical effect result in series [3] (group not receiving alteplase) was “improved functional outcomes, reduced mortality, and reduced infarction volumes”; in series [3] (patients receiving alteplase), “not effective”. Further, at plasmin [4], the cleavage by plasmin result is given as “cleaves nerinetide”. Besides, the neuroprotective properties entry in the series with pMCAO mice was “did not show significant neuroprotective properties”.

Values taken from US20240245793A1, “PSD-95 INHIBITORS AND USES THEREOF” (priority 2021, published 2024).
